# Key:
# [1] = Crystallization by heat-cool DSC; format: physicochemical; conditions: for Thermal events: Melting Tonset / Thermal events: enthalpy: heated to 185° C.; for Thermal events: Delta Cp / Thermal events: Tg: reheated to 250° C.
# From the text: Polymorphic behavior of Compound 1 Form A was investigated by two different heat-cool DSC cycles. A Tzero pan and a Tzero hermetic lid with a pin hole were used for this experiment. No new crystalline form was obtained by heat-cool DSC.
# [2] = Salt screening by slurry equilibration; format: physicochemical
# Protocol: About 30 mg of Compound 1 Form A and 0.5 or 1 equivalent of base were added into a solvent in a 2 mL glass vial. […] Obtained mixtures were stirred at 25° C. for at least 48 hours.
# Obtained suspensions were filtered through a 0.45 μm nylon membrane filter by centrifugation at 14,000 rpm. After being dried at 25° C. under vacuum for 2 h, solid parts were analyzed by XRPD.
# [3] = Salt screening by anti-solvent addition; format: physicochemical; conditions: Choline; MeOH/0.2 mL, anti-solvent MTBE/0.3 mL
# [4] = Stability study for Compound 1 Form A (storage conditions); format: physicochemical
# [5] = Dry grinding simulation experiments; format: physicochemical
# Protocol: About 20 mg of Compound 1 Form B was ground manually with a mortar and a pestle for 1, 2 and 5 min. Potential form change, and degree of crystallinity were evaluated by XRPD.
# [6] = Wet granulation simulation experiments; format: physicochemical
# Protocol: Water or ethanol was added drop wise to about 20 mg of Compound 1 Form B until the sample was wetted sufficiently. Wet sample was ground gently with in a mortar and a pestle. Post granulation sample was dried under ambient condition for 10 min. Potential form change and degree of crystallinity were evaluated by XRPD.
# [7] = Bulk stability of Compound 1 Form B (1 week stress); format: physicochemical
# BRAF^V600E = BRAF^V600E (Homo sapiens, UniProt P15056, V600E); assay: BRAF V600E degradation in A375 cells; format: cell-based; conditions: 24 hr
# BRAF^V600E, sequence (P15056 whole entry V600E): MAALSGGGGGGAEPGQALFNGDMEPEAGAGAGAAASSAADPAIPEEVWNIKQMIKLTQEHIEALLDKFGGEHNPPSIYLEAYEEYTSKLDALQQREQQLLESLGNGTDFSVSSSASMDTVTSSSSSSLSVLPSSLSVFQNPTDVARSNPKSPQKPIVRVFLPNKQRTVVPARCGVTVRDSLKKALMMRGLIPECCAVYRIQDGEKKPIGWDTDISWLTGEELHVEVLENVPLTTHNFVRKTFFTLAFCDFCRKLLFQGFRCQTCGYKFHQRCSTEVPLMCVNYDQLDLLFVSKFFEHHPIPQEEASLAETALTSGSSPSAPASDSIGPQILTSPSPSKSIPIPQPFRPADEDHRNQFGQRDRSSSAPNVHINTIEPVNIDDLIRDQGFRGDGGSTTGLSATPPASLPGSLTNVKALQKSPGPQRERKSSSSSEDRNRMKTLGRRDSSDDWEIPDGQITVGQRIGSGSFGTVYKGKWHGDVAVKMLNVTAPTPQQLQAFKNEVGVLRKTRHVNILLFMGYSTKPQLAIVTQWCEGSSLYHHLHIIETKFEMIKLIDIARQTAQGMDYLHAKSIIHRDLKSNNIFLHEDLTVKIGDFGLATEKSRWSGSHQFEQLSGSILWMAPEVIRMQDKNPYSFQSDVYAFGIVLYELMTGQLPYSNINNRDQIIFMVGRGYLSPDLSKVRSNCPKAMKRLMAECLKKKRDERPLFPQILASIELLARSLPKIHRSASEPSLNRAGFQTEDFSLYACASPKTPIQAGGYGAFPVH
# BCS / DCS classification = conditions: initial studies
# From the text: Initial studies indicate Compound 1 is a Biopharmaceutics Classification System (BCS) Class II and a Developability Classification System (DCS) Class IIb molecule.
# [8] = Plasma and brain pharmacokinetics in A375-luciferase intracranial model; parameters: species or system BALB/c nude mice; conditions: mouse, in vivo
# Protocol: To determine the level of CNS and plasma exposure of Compound 1 compared to encorafenib, a separate pharmacokinetics/pharmacodynamics (PK/PD) study was conducted. Mice were inoculated with luciferase tagged A375 cells as stated above. The tumors were left to establish and expand for 14 days before the study. […] Samples from 3 mice per treatment group were collected at 1, 12, 24, and 48 hours. To test the plasma samples, the mice were anesthetized, and blood was collected into a tube with EDTA-K2, centrifuged, transferred to a fresh tube, and stored frozen. Following blood collection, the mice were perfused for fifteen minutes, decapitated, and the brain was collected and frozen. The harvested plasma and brain were processed for pharmacokinetics analysis by LC/MS/MS with a concentration range of 1-1,000 ng/mL and pharmacodynamics analysis by Western Blot. The concentrations of Compound 1 and encorafenib found in the plasma is shown in FIG. 42, and the concentration found in the brain is shown in FIG. 43.
# [9] = tested on: HT-29 human colorectal cancer cell derived xenografts (CDX); assay: Efficacy in HT-29 CDX model of colorectal cancer; format: in vivo, BALB/c nude mice
# From the text: The endpoint for each individual mouse was reached when the mouse weight decreased by 20%.
# [10] = Cycle 1 (cooling at 20° C./min)
# [11] = 25° C. ± 2° C./60% RH ± 5% RH, 3 M
# [12] = 25° C. ± 2° C./60% RH ± 5% RH, 6 M
# [13] = 40° C. ± 2° C./75% RH ± 5% RH, 3 M
# [14] = 40° C. ± 2° C./75% RH ± 5% RH, 6 M
# [15] = Solid state, photo (visible light, 1.2 million lux-hrs)
compound,measurement,setting,value
CCN(C)S(=O)(=O)Nc1ccc(F)c(Oc2ccc3ncn([C@H]4COC5(CCN(C(=O)CC6(O)CCN(c7cc8c(cc7F)c(N7CCC(=O)NC7=O)nn8C)CC6)CC5)C4)c(=O)c3c2)c1C#N [Compound 1 Form A],Thermal events: Melting Tonset,[1]; [10],"Tonset 167.7° C., enthalpy about"
same,Thermal events: enthalpy,[1]; [10],~16 J/g
same,Thermal events: Delta Cp,[1]; [10],Delta Cp 0.3 J(g. ° C.)
same,Thermal events: Tg,[1]; [10],"Heated to 250° C.: Tg 149.8° C.,"
same,Thermal events: Melting Tonset,[1]; Cycle 2 (cooling at 2° C./min),"Tonset 167.7° C., enthalpy about"
same,Thermal events: enthalpy,[1]; Cycle 2 (cooling at 2° C./min),~17 J/g
same,Thermal events: Delta Cp,[1]; Cycle 2 (cooling at 2° C./min),Delta Cp 0.2 J(g. ° C.)
same,Thermal events: Tg,[1]; Cycle 2 (cooling at 2° C./min),"Heated to 250° C.: Tg 145.9° C.,"
same,Slurry equilibration result (XRPD),"[2]; Ca(OH)2 (0.5 equiv.), Acetone, 5% water",Sticky material
same,Slurry equilibration result (XRPD),"[2]; Ca(OH)2 (0.5 equiv.), Acetonitrile, 5% water",Sticky material
same,Slurry equilibration result (XRPD),"[2]; Choline (1 equiv.), Acetone",Sticky material
same,Slurry equilibration result (XRPD),"[2]; Choline (1 equiv.), Acetonitrile",Sticky material
same,Slurry equilibration result (XRPD),"[2]; Choline (1 equiv.), Methanol",Clear solution
same,Slurry equilibration result (XRPD),"[2]; Erbumine (1 equiv.), Methanol",Few solids
same,Slurry equilibration result (XRPD),"[2]; Free form only, Acetone",Form B
same,Slurry equilibration result (XRPD),"[2]; Free form only, Acetonitrile",Form B
same,Slurry equilibration result (XRPD),"[2]; Methylglucamine (1 equiv.), Methanol",Sticky material
same,Slurry equilibration result (XRPD),"[2]; Mg(OH)2 (0.5 equiv.), Acetone, 5% water",Few solids
same,Slurry equilibration result (XRPD),"[2]; Mg(OH)2 (0.5 equiv.), Acetonitrile, 5% water",Form B
same,Slurry equilibration result (XRPD),"[2]; NH3 (1 equiv.), Acetone",Hazy suspension
same,Slurry equilibration result (XRPD),"[2]; NH3 (1 equiv.), Acetonitrile",Form I*
same,Slurry equilibration result (XRPD),"[2]; TRIS (1 equiv.), Methanol",Few solids
same,Notes,[3],Sticky material
same,Appearance,"[4]; 5 ± 3° C., 6 M",white solid
same,Assay by UPLC (% w/w),"[4]; 5 ± 3° C., 6 M",92.0% w/w
same,Chiral purity by HPLC (% area),"[4]; 5 ± 3° C., 6 M",99.2% area
same,"Related Substances by UPLC (% area), Total Impurities","[4]; 5 ± 3° C., 6 M",2.8% area
same,Water Content by KF (% w/w),"[4]; 5 ± 3° C., 6 M",4.7% w/w
same,XRPD,"[4]; 5 ± 3° C., 6 M",Form A
same,"Stability study outcome (appearance, water content, chiral purity, assay, related substance)","[4]; 5 ± 3° C., 25° C./60% RH, 30° C./65% RH, 40° C./75% RH",meet the acceptance criteria
same,Assay by UPLC (% w/w),[4]; [11],93.3% w/w
same,Chiral purity by HPLC (% area),[4]; [11],99.2% area
same,"Related Substances, UPLC (% area), Total Impurities",[4]; [11],2.6% area
same,Water Content by KF (% w/w),[4]; [11],3.6% w/w
same,XRPD,[4]; [11],Form A
same,Assay by UPLC (% w/w),[4]; [12],92.9% w/w
same,Chiral purity by HPLC (% area),[4]; [12],99.2% area
same,"Related Substances, UPLC (% area), Total Impurities",[4]; [12],2.9% area
same,Water Content by KF (% w/w),[4]; [12],4.2% w/w
same,XRPD,[4]; [12],Form A
same,Appearance,"[4]; 30 ± 2° C./65 ± 5% RH, 6 M",white solid
same,Assay by UPLC (% w/w),"[4]; 30 ± 2° C./65 ± 5% RH, 6 M",92.4% w/w
same,Chiral purity by HPLC (% area),"[4]; 30 ± 2° C./65 ± 5% RH, 6 M",99.2% area
same,"Related Substances, UPLC (% area), Total Impurities","[4]; 30 ± 2° C./65 ± 5% RH, 6 M",3.0% area
same,Water Content by KF (% w/w),"[4]; 30 ± 2° C./65 ± 5% RH, 6 M",3.8% w/w
same,XRPD,"[4]; 30 ± 2° C./65 ± 5% RH, 6 M",Form A
same,Assay by UPLC (% w/w),[4]; [13],92.2% w/w
same,Chiral purity by HPLC (% area),[4]; [13],99.2% area
same,"Related Substances, UPLC (% area), Total Impurities",[4]; [13],2.7% area
same,Water Content by KF (% w/w),[4]; [13],3.9% w/w
same,XRPD,[4]; [13],Form A
same,Assay by UPLC (% w/w),[4]; [14],92.5% w/w
same,Chiral purity by HPLC (% area),[4]; [14],99.2% area
same,"Related Substances, UPLC (% area), Total Impurities",[4]; [14],3.3% area
same,Water Content by KF (% w/w),[4]; [14],4.5% w/w
same,XRPD,[4]; [14],Form A
same,Appearance,[4]; Initial,white solid
same,Assay by UPLC (% w/w),[4]; Initial,97.3% w/w
same,Chiral purity by HPLC (% area),[4]; Initial,99.2% area
same,"Related Substances by UPLC (% area), Total Impurities",[4]; Initial,2.6% area
same,Water Content by KF (% w/w),[4]; Initial,0.59% w/w
same,XRPD,[4]; Initial,Form A
same,Water content trend,[4]; each stability condition,increased overtime
CCN(C)S(=O)(=O)Nc1ccc(F)c(Oc2ccc3ncn([C@H]4COC5(CCN(C(=O)CC6(O)CCN(c7cc8c(cc7F)c(N7CCC(=O)NC7=O)nn8C)CC6)CC5)C4)c(=O)c3c2)c1C#N [Compound 1 Form B],Morphic form stability under dry grinding,[5],excellent morphic form stability
same,Comments,[5]; grinding time 1 min,Slight decrease in crystallinity.
same,XRPD,[5]; grinding time 1 min,Form B
same,Comments,[5]; grinding time 2 min,Slight decrease in crystallinity.
same,XRPD,[5]; grinding time 2 min,Form B
same,Comments,[5]; grinding time 5 min,Slight decrease in crystallinity.
same,XRPD,[5]; grinding time 5 min,Form B
same,XRPD after wet granulation,[6]; granulation solvent Ethanol,Form B; no crystallinity decrease.
same,XRPD after wet granulation,[6]; granulation solvent Water,Form B; no crystallinity decrease.
same,Crystallinity change after wet granulation,[6]; in the presence of water or ethanol,no changes in crystallinity
same,Bulk (XRPD) crystallinity,[7]; [15],Slight decrease in crystallinity
same,Color,[7]; [15],No change of color
same,"Purity, Bulk (HPLC)",[7]; [15],96.9%
same,"Purity, Control (HPLC)","[7]; photo test, control sample",99.4%
"CCN(C)S(=O)(=O)Nc1ccc(F)c(Oc2ccc3ncn([C@H]4COC5(CCN(C(=O)CC6(O)CCN(c7cc8c(cc7F)c(N7CCC(=O)NC7=O)nn8C)CC6)CC5)C4)c(=O)c3c2)c1C#N [Compound 1, (3R)-3-[6-[2-cyano-3-[[ethyl(methyl)sulfamoyl]amino]-6-fluorophenoxy]-4-oxoquinazolin-3-yl]-8-[2-[1-[3-(2,4-dioxo-1,3-diazinan-1-yl)-5-fluoro-1-methylindazol-6-yl]-4-hydroxypiperidin-4-yl]acetyl]-1-oxa-8-azaspiro[4.5]decane]",BRAF protein degraded,BRAF^V600E,74%
same,DC50,BRAF^V600E,14 nM
same,Biopharmaceutics Classification System (BCS) class,BCS / DCS classification,Class II
same,Developability Classification System (DCS) class,BCS / DCS classification,Class IIb
same,Blood brain barrier penetration,[8],high level of blood brain barrier penetration
same,Tumor response at end of study,[9]; 10 mg/kg PO BID plus cetuximab 11 mg/kg IP Q3D,tumor regression
same,Tumor response at end of study,"[9]; 10 mg/kg PO BID, without cetuximab",tumor regression

# Source: US20250289827A1, “MORPHIC FORMS OF A MUTANT BRAF DEGRADER AND METHODS OF MANUFACTURE THEREOF” (C4 THERAPEUTICS, INC., priority 2022, published 2025)
